The results in this text go back to US20230089867A1, “CYCLIC PENTAMER COMPOUNDS AS PROPROTEIN CONVERTASE SUBTILISIN/KEXIN TYPE 9 (PCSK9) INHIBITORS FOR THE TREATMENT OF METABOLIC DISORDER” (Novartis AG, priority 2018, published 2023).

This test has as its target human PCSK9 (Homo sapiens, UniProt Q8NBP7). Briefly: PCSK9 ligand binding TR-FRET assay (interference with binding of human PCSK9 to human LDLR). The note with it: for Max % inhibition: PCSK9 FRET assay, efficacy (Amax), 100% = 1 uM unlabeled human PCSK9, 0% = DMSO; for IC50: TR-FRET, human PCSK9 Alexa Fluor 647 / human LDLR extracellular domain-Europium Kryptate, read-out: PCSK9 FRET Assay IC50. An outline of the steps:
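Threefold compound dilutions were pre-incubated 30 min with PCSK9, after which 4 nM Europium Kryptate-tagged human LDLR ectodomain was added for a further 2 h.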
For orientation: In TR-FRET formats the signal depends on donor and acceptor labels being close together.

Chain of human PCSK9 (Q8NBP7 153-692): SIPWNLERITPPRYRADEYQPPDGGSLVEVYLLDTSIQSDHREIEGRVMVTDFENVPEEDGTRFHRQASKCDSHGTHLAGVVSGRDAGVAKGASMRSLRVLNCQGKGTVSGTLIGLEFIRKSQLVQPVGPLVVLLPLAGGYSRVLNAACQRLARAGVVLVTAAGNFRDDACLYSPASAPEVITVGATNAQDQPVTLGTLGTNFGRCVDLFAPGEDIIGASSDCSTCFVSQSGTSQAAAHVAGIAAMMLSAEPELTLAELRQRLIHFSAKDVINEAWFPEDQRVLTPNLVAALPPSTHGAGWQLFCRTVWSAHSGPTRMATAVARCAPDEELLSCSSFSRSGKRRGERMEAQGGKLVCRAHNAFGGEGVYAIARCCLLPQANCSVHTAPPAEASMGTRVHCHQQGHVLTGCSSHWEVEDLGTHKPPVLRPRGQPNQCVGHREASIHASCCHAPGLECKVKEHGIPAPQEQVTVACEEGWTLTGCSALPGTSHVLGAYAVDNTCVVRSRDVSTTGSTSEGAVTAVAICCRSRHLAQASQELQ
Chain of human PCSK9 (Q8NBP7 31-152 partner limits assumed): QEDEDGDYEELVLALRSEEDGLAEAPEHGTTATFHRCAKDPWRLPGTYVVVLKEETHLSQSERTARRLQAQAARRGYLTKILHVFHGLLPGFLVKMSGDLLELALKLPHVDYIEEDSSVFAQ

Take `COC[C@@H]1NC(=O)[C@H](C)N(Cc2ccc(Cl)cc2Oc2ccc(-c3cnc(CN(C)C)n3C)cc2)C(=O)C[C@@H](Cc2ccccc2)C(=O)N(C)[C@H]2C[C@H]2NC(=O)C[C@H](Cc2ccc(Cl)cc2)N(C)C1=O` [Compound 247, (1R,5S,8S,11S,15R,18S)-15-benzyl-12-(4-chloro-2-(4-(2-((dimethylamino)methyl)-1-methyl-1H-imidazol-5-yl)phenoxy)benzyl)-5-(4-chlorobenzyl)-8-(methoxymethyl)-6,11,17-trimethyI-2,6,9,12,17-pentaazabicyclo[16.1.0]nonadecane-3,7,10,13,16-pentaone]: the Max % inhibition is on record as 98.86% and the IC50 (in general, the concentration that inhibits the measured activity by half) is 33.2 nM.
`CC[C@H]1C(=O)N[C@@H](COC)C(=O)N(C)[C@@H](Cc2ccc(Cl)cc2F)CC(=O)NC[C@H](C)N(C)C(=O)[C@H](Cc2ccccc2)CC(=O)N1Cc1ccc(Cl)cc1Oc1ccc(-c2cnc(CN(C)C)n2C)cc1` [Compound 248, (2S,5S,8S,13S,16R)-16-benzyl-1-(4-chloro-2-(4-(2-((dimethylamino)methyl)-1-methyl-1H-imidazol-5-yl)phenoxy)benzyl)-8-(4-chloro-2-fluorobenzyl)-2-ethyl-5-(methoxymethyl)-7,13,14-trimethyl-1,4,7,11,14-pentaazacyclooctadecane-3,6,10,15,18-pentaone]: the Max % inhibition was 106.74% and the IC50 came to 2.2 nM.
Taken in the same sequence, the figures for `COC[C@@H]1NC(=O)[C@H](C)N(Cc2ccc(Cl)cc2Oc2ccc(-c3cnc4n3CC[N+]3(CCCC3)C4)cc2)C(=O)C[C@@H](Cc2ccccc2)C(=O)N(C)[C@@H](C)CNC(=O)C[C@H](Cc2ccc(Cl)cc2)N(C)C1=O.Cl.[Cl-]` [Compound 249, 3-(4-(2-(((2S,5S,8S,13S,16R)-16-benzyl-8-(4-chlorobenzyl)-5-(methoxymethyl)-2,7,13,14-tetramethyl-3,6,10,15,18-pentaoxo-1,4,7,11,14-pentaazacyclooctadecan-1-yl)methyl)-5-chlorophenoxy)phenyl)-5,6-dihydro-8H-spiro[imidazo[1,2-a]pyrazine-7,1′-pyrrolidin]-7-ium chloride hydrochloride] were 98.36% and 2.3 nM.
For `COC[C@@H]1NC(=O)[C@H](CCN(C)C)N(Cc2ccc(Cl)cc2Oc2ccc(-c3cnc(CN(C)C)n3C)cc2)C(=O)C[C@@H](Cc2ccccn2)C(=O)N(C)[C@H]2CCCC[C@@H]2NC(=O)C[C@H](Cc2ccc(Cl)cc2)N(C)C1=O` [Compound 250, (4S,7S,10S,14R,16aS,20aS)-11-(4-chloro-2-(4-(2-((dimethylamino)methyl)-1-methyl-1H-imidazol-5-yl)phenoxy)benzyl)-4-(4-chlorobenzyl)-10-(2-(dimethylamino)ethyl)-7-(methoxymethyl)-5,16-dimethyl-14-(pyridin-2-ylmethyl)hexadecahydrobenzo[l][1,4,7,11,14]pentaazacyclooctadecine-2,6,9,12,15(3H)-pentaone] the same measures were 84.24% and 0.4 nM.
For `COC[C@@H]1NC(=O)[C@H](CCCN2CCCC2)N(Cc2ccc(Cl)cc2Oc2ccc(-c3cnc(CN(C)C)n3C)cc2)C(=O)C[C@@H](Cc2ccccc2)C(=O)N(C)[C@H]2CCCC[C@@H]2NC(=O)C[C@H](Cc2ccc(Cl)cc2)N(C)C1=O` [Compound 251, (4S,7S,10S,14R,16aS,20aS)-14-benzyl-11-(4-chloro-2-(4-(2-((dimethylamino)methyl)-1-methyl-1H-imidazol-5-yl)phenoxy)benzyl)-4-(4-chlorobenzyl)-7-(methoxymethyl)-5,16-dimethyl-10-(3-(pyrrolidin-1-yl)propyl)hexadecahydrobenzo[l][1,4,7,11,14]pentaazacyclooctadecine-2,6,9,12,15(3H)-pentaone] the same measures were 99.24% and 0.8 nM.
Take `COC[C@@H]1NC(=O)[C@H](CCCN2CCOCC2)N(Cc2ccc(Cl)cc2Oc2ccc(-c3cnc(CN4CCCC4)n3C)cc2)C(=O)C[C@@H](Cc2ccccc2)C(=O)N(C)[C@H]2CCCC[C@@H]2NC(=O)C[C@H](Cc2ccc(Cl)cc2)N(C)C1=O` [Compound 252, (4S,7S,10S,14R,16aS,20aS)-14-benzyl-11-(4-chloro-2-(4-(1-methyl-2-(pyrrolidin-1-ylmethyl)-1H-imidazol-5-yl)phenoxy)benzyl)-4-(4-chlorobenzyl)-7-(methoxymethyl)-5,16-dimethyl-10-(3-morpholinopropyl)hexadecahydrobenzo[l][1,4,7,11,14]pentaazacyclooctadecine-2,6,9,12,15(3H)-pentaone]: the Max % inhibition stood at 92.00% and the half-inhibitory concentration (IC50) stood at 2.1 nM.
Taken in the same sequence, the figures for `COC[C@@H]1NC(=O)[C@H](C)N(Cc2ccc(Cl)cc2Oc2ccc(-c3cnc(CN(C)C)n3C)cc2)C(=O)C[C@@H](Cn2cccn2)C(=O)N(C)[C@H]2CCCC[C@@H]2NC(=O)C[C@H](Cc2ccc(Cl)cc2)N(C)C1=O` [Compound 253, (4S,7S,10S,16aS,20aS)-14-((1H-pyrazol-1-yl)methyl)-11-(4-chloro-2-(4-(2-((dimethylamino)methyl)-1-methyl-1H-imidazol-5-yl)phenoxy)benzyl)-4-(4-chlorobenzyl)-7-(methoxymethyl)-5,10,16-trimethylhexadecahydrobenzo[l][1,4,7,11,14]pentaazacyclooctadecine-2,6,9,12,15(3H)-pentaone] were 98.40% and 1.5 nM.
With `COC[C@@H]1NC(=O)[C@H](CCCN2CC(F)(F)C(F)(F)C2)N(Cc2ccc(Cl)cc2Oc2ccc(-c3cnc(CN(C)C)n3C)cc2)C(=O)C[C@@H](Cc2ccccc2)C(=O)N(C)[C@H]2CCCC[C@@H]2NC(=O)C[C@H](Cc2ccc(Cl)cc2)N(C)C1=O` [Compound 254, (4S,7S,10S,14R,16aS,20aS)-14-benzyl-11-(4-chloro-2-(4-(2-((dimethylamino)methyl)-1-methyl-1H-imidazol-5-yl)phenoxy)benzyl)-4-(4-chlorobenzyl)-7-(methoxy-methyl)-5,16-dimethyl-10-(3-(3,3,4,4-tetrafluoropyrrolidin-1-yl)propyl)hexadecahydro-benzo[l][1,4,7,11,14]pentaazacyclooctadecine-2,6,9,12,15(3H)-pentaone], the Max % inhibition stood at 102.70% and the IC50 amounted to 3 nM.
Turning to `COC[C@@H]1NC(=O)[C@H](C)N(Cc2ccc(Cl)cc2Oc2ccc(-c3cnc(CN(C)C)n3C)cc2)C(=O)C[C@@H](C)C(=O)N(C)[C@@H](CC(C)C)CNC(=O)C[C@H](Cc2ccc(Cl)cc2)N(C)C1=O` [Compound 255, (5S,8S,13S,16R)-1-(4-chloro-2-(4-(2-((dimethylamino)methyl)-1-methyl-1H-imidazol-5-yl)phenoxy)benzyl)-8-(4-chlorobenzyl)-13-isobutyl-5-(methoxymethyl)-2,7,14,16-tetramethyl-1,4,7,11,14-pentaazacyclooctadecane-3,6,10,15,18-pentaone], the Max % inhibition stood at 64.95% and the IC50 was found to be 19.7 nM.
